From patent publication US8637040B2, “Genus-wide chlamydial peptide vaccine antigens” (priority 2008, dated 2014)

How the values were obtained:
[1] = system: C. trachomatis-infected HEp2 cells; test: Indirect immunofluorescence of immune sera on infected HEp2 cells; assay type: cell-based, human; conditions: sera 1:40 dilution, FITC anti-mouse IgG
Excerpt: Micrographs of HEp2 cells infected with C. trachomatis are immunostained (by indirect immunofluorescence) with sera (1:40 dilution) from mice immunized with the designated peptides (A-E) or soluble. mAb2 (F). FITC anti-mouse IgG was the detecting antibody. Arrows point to distinct differences in targets of the immune sera. Antibodies in panels A-C recognized EB and RB and possibly some matrix material in the inclusion. Antibodies in D-E also recognized targets in the inclusion matrix and inclusion membrane, similar to immune sera raised against the older vaccine candidate, the entire mAb2 (F). 40× original magnification. Samples are counterstained with Evans blue.
HEp2 cells were infected with C. trachomatis were subjected to cytocentrifugation to deposit them onto microscope slides. After fixation (MeOH) they were stained with sera (1:40 dilution) from mice immunized with the indicated peptides or with soluble mAb2. The binding of the antibodies to the cells was detected using a fluorescent (FITC-labeled) secondary Ab, an anti-mouse IgG. Results appear in FIGS. 9A-F.

C trachomatis = test: DFA staining of vaginal smears after challenge of peptide-immunized mice; assay type: in vivo, mouse; conditions: mice immunized three times at 100 μg doses; days 7 and 14 post-challenge
Excerpt: Mice are challenged with a human biovar of C trachomatis (K or E serovars for urogenital infections; C or B serovars for ocular infection).
Groups of 4-8 mice are “masked” as to pretreatment before challenge with live elementary bodies (EB). At weekly intervals through at least 4 wks, vaginal (or conjunctival) swabs are collected for isolation culture and direct fluorescence antibody staining for EB.
Using the murine models described above, the present inventors immunized mice with one of the four peptides (Pep4, 7, 8 or 10) administered three times at 100 μg doses. Results of direct fluorescent antibody (DFA) staining are summarized for days 7 and 14 post-challenge in FIGS. 10-11.

human sera = test: ELISA of human serum samples on 4 peptides (Example XI); assay type: binding
Experimental: (§1) Blood was collected prior to immunizations and prior to the two boosts. Sera were tested in ELISA. The ELISA method used in the present examples, in which many if not all the parameters and conditions may be varied or modified in ways that are completely conventional in the art, is described below. • 1. 96 well plates (Immulon HBX4) were coated with 50 μl of diluted antigen (peptides at 1 μg/well made in carbonate buffer) and incubated overnight at 4° C. • 2. Unbound antigen was removed by flicking the contents of the plate into a sink without further washing. • 3. Non-specific binding was blocked or prevented by adding 300 μL/well of 4% BSA/PBS-Tween 20 (0.05%). This was allowed to incubate for 2 hour at room temperature. • 4. The plates were washed once with PBS-Tween 20 (0.05%) and 50 μl of primary antibody was added per well at appropriate dilutions. When using serum, the starting dilution was 1:40 and was further diluted by doublings to 1:80, 1:160, and 1:320 (or higher as desired). Plates were incubated for 1 hour at 37° C. • 5. Plates were washed three times with PBS-Tween (0.05%) as above and 100 μl of secondary antibody was added per well at appropriate dilutions. For alkaline phosphatase-conjugated goat anti-mouse IgG-AP, a dilution of 1:500 was used here. Plates were incubated for 1 hour at 37° C. • 6. Plates were again washed three times as above and 200 μl of substrate solution for Alkaline phosphatase (p-nitro phenyl phosphate or pNPP) was added at a concentration of 5 mg/ml. The color reaction was read in an automated microplate reader at a frequency of […] and the absorbance (or optical density) was registered (referred to as A405 or OD405) Several important observations were made in these tests against the 4 peptides: (a) all 4 peptides were immunogenic and induced increasing anti-peptide responses with subsequent boosts in all mice (except in one non-responder) (FIG. 3). […] See also FIG. 16A-16B
Human sera were tested by PCR for expression of several chlamydial genes, by IHC against C. trachomatis-infected cells and by ELISA against several of the peptides of the present invention. Results are shown in Table 7 (below) which include results from PCR-studies for presence of DNA encoding the chlamydial Major Outer Membrane Protein (MOMP) in human peripheral blood mononuclear cells (PBMC) (which are primarily lymphocytes and monocytes) and cervical swabs
Also shown is IHC staining of C. trachomatis-infected human HEp2 cells and binding of antibodies in the patient samples to four peptides of the present invention (Pep4, 7, 8, and 10) in ELISA.

Pep4, Pep7, Pep8, Pep10 = test: Cross-reactivity between peptides in ELISA; assay type: binding; conditions: sera of mice immunized with a single peptide
Experimental: as §1
Both of these are category #1 peptides. […] That supports the notion that CDR1 and CDR3 of mAb2 are antigenically distinct.

chlamydia = test: Gross anatomical observation of genital tract inflammation after challenge; assay type: in vivo, mouse; conditions: female mice primed and boosted twice SC, necropsy ~28 days post-challenge, vs adjuvant-only control
Excerpt: FIG. 15A-15C is a set of three photographs showing the gross morphology of tissues of the female reproductive tract of mice immunized and then challenged 28 days earlier with Pep4 or Pep7. Mice had been primed and boosted twice SC, as above, and were challenged with chlamydia 2 weeks later, rechallenged and sacrificed 4 weeks after re-challenge. Inflamed genital tracts outlined in dashed lines.
Genital tracts were exposed at necropsy ˜28 days post-challenge to score inflammatory changes (and then removed for histological analysis). […] Representative examples for recipients of Peptides 4 and 7 are shown in the center and right panels, respectively. Yellow arrows point to uterine horns (which are further demarcated with dashed lines). It is evident that the peptide immunogens reduced the gross pathology of the genital tract even weeks after challenge. This has been reproduced in a second experiment in which control mice received an irrelevant peptide instead of Peptides 4 or 7. Based on what is known in the art from other contexts, the histopathological results are expected to be consistent with these gross anatomical observations.

GYTFTDYSMH [Pep8]
structures recognized by immune sera in infected cells [1]: recognized targets in the inclusion matrix and membrane
bacterial shedding measured by DFA staining (C trachomatis): reduced bacterial shedding
ELISA 1:40 on 4 peptides Scale: 1+-3+ (human sera; human serum sample # 1): 2
ELISA 1:40 on 4 peptides Scale: 1+-3+ (human sera; human serum sample # 2): 1
ELISA 1:40 on 4 peptides Scale: 1+-3+ (human sera; human serum sample # 3): 2.5
ELISA 1:40 on 4 peptides Scale: 1+-3+ (human sera; human serum sample # 5): 2
ELISA 1:40 on 4 peptides Scale: 1+-3+ (human sera; human serum sample # 7): 1
ELISA 1:40 on 4 peptides Scale: 1+-3+ (human sera; human serum sample # 8): 3
ELISA 1:40 on 4 peptides Scale: 1+-3+ (human sera; human serum sample # 9): 3
ELISA 1:40 on 4 peptides Scale: 1+-3+ (human sera; human serum sample # 10): 2
ELISA 1:40 on 4 peptides Scale: 1+-3+ (human sera; human serum sample # 12): 2
ELISA 1:40 on 4 peptides Scale: 1+-3+ (human sera; human serum sample # 13): 2
ELISA 1:40 on 4 peptides Scale: 1+-3+ (human sera; human serum sample # 16): 1.5
ELISA 1:40 on 4 peptides Scale: 1+-3+ (human sera; human serum sample # 18): 3
ELISA 1:40 on 4 peptides Scale: 1+-3+ (human sera; human serum sample # 21): 3
ELISA 1:40 on 4 peptides Scale: 1+-3+ (human sera; human serum sample # 22): 1.5
ELISA 1:40 on 4 peptides Scale: 1+-3+ (human sera; human serum sample # 23): 1.5
ELISA 1:40 on 4 peptides Scale: 1+-3+ (human sera; human serum sample # 24): 2
ELISA 1:40 on 4 peptides Scale: 1+-3+ (human sera; human serum sample # 26): 2
cross-reactivity of raised Abs with Peps 4, 7 or 10 (ELISA) (Pep4, Pep7, Pep8, Pep10): did not cross-react

HALMPATAVASL [Pep7]
structures recognized by immune sera in infected cells [1]: recognized EB and metabolically active, non-infectious reticulate bodies (RB)
ELISA 1:40 on 4 peptides Scale: 1+-3+ (human sera; human serum sample # 1): 1.5
ELISA 1:40 on 4 peptides Scale: 1+-3+ (human sera; human serum sample # 2): 1
ELISA 1:40 on 4 peptides Scale: 1+-3+ (human sera; human serum sample # 3): 2.5
ELISA 1:40 on 4 peptides Scale: 1+-3+ (human sera; human serum sample # 5): 2
ELISA 1:40 on 4 peptides Scale: 1+-3+ (human sera; human serum sample # 7): 0.75
ELISA 1:40 on 4 peptides Scale: 1+-3+ (human sera; human serum sample # 8): 3
ELISA 1:40 on 4 peptides Scale: 1+-3+ (human sera; human serum sample # 9): 3
ELISA 1:40 on 4 peptides Scale: 1+-3+ (human sera; human serum sample # 10): 2
ELISA 1:40 on 4 peptides Scale: 1+-3+ (human sera; human serum sample # 12): 1.5
ELISA 1:40 on 4 peptides Scale: 1+-3+ (human sera; human serum sample # 13): 2
ELISA 1:40 on 4 peptides Scale: 1+-3+ (human sera; human serum sample # 16): 1.5
ELISA 1:40 on 4 peptides Scale: 1+-3+ (human sera; human serum sample # 18): 3
ELISA 1:40 on 4 peptides Scale: 1+-3+ (human sera; human serum sample # 21): 2
ELISA 1:40 on 4 peptides Scale: 1+-3+ (human sera; human serum sample # 22): 1.5
ELISA 1:40 on 4 peptides Scale: 1+-3+ (human sera; human serum sample # 23): 1.5
ELISA 1:40 on 4 peptides Scale: 1+-3+ (human sera; human serum sample # 24): 1.5
ELISA 1:40 on 4 peptides Scale: 1+-3+ (human sera; human serum sample # 26): 2
cross-reactivity of raised Abs with Pep4 (ELISA) (Pep4, Pep7, Pep8, Pep10): cross reacted
gross inflammation / pathology of the genital tract (chlamydia): not nearly as inflamed

RYDVGGDHYYFTMD [Pep10]
structures recognized by immune sera in infected cells [1]: recognized targets in the inclusion matrix and membrane
ELISA 1:40 on 4 peptides Scale: 1+-3+ (human sera; human serum sample # 1): 2
ELISA 1:40 on 4 peptides Scale: 1+-3+ (human sera; human serum sample # 2): 1
ELISA 1:40 on 4 peptides Scale: 1+-3+ (human sera; human serum sample # 3): 2.5
ELISA 1:40 on 4 peptides Scale: 1+-3+ (human sera; human serum sample # 5): 1.5
ELISA 1:40 on 4 peptides Scale: 1+-3+ (human sera; human serum sample # 7): 1
ELISA 1:40 on 4 peptides Scale: 1+-3+ (human sera; human serum sample # 8): 3
ELISA 1:40 on 4 peptides Scale: 1+-3+ (human sera; human serum sample # 9): 3
ELISA 1:40 on 4 peptides Scale: 1+-3+ (human sera; human serum sample # 10): 2
ELISA 1:40 on 4 peptides Scale: 1+-3+ (human sera; human serum sample # 12): 2
ELISA 1:40 on 4 peptides Scale: 1+-3+ (human sera; human serum sample # 13): 2
ELISA 1:40 on 4 peptides Scale: 1+-3+ (human sera; human serum sample # 16): 1
ELISA 1:40 on 4 peptides Scale: 1+-3+ (human sera; human serum sample # 18): 2
ELISA 1:40 on 4 peptides Scale: 1+-3+ (human sera; human serum sample # 21): 3
ELISA 1:40 on 4 peptides Scale: 1+-3+ (human sera; human serum sample # 22): 2
ELISA 1:40 on 4 peptides Scale: 1+-3+ (human sera; human serum sample # 23): 1
ELISA 1:40 on 4 peptides Scale: 1+-3+ (human sera; human serum sample # 24): 2
ELISA 1:40 on 4 peptides Scale: 1+-3+ (human sera; human serum sample # 26): 1.5
